# Laboratory results reported in US4599310A, “Process for producing antitumor antibiotic compound” (priority 1985, dated 1986).
# Bridge positions count the residues as written; N and C are the ends. Square brackets hold non-standard residues; d marks the D form. Peptide text beside a SMILES is read from it. I, II: the chains in the order shown. * marks the point of attachment. Quinaldoyl(3-OH) = O=C(c1nc2ccccc2cc1O)*; NMeV = CN[CH](C(=O)O)C(C)C; Pip = O=C(O)[CH]1CCCCN1; Sar = CNCC(=O)O
# Tests used:
# [1] = test system: S. aureus 209P-A9497; test: Antibacterial activity, serial two-fold agar dilution method; assay type: cell-based; conditions: Staphylococcus aureus, read-out: Minimum Inhibitory Concentration (MIC)
# Procedure: (§1) The antibacterial activities of sandramycin were determined by a serial two-fold agar dilution method. The results are shown in Table 5 in comparison with the activities of luzopeptin A and echinomycin.
# [2] = test system: P-388 leukemia; test: Transplantable mouse tumor P-388 leukemia; assay type: in vivo, mouse (CDF1 female mice); conditions: for MST (median survival time): control MST 9.0 days
# Procedure: The methodology used generally followed the protocols of the National Cancer Institute [Cancer Chemotherapy Rep. Part 3, 3, 1-103 (1972)]. The essential experimental details are given at the bottom of Table 6. Two different dose regimens were tested: single dose on day 1 and daily for 5 days. With both schedules, the optimum dose appears to be about 0.2 mg/kg/injection.
# Tumor inoculum: 10^6 ascites cells implanted i.p.
# Evaluation: MST = median survival time
# Effect: % T/C ≥ (MST treated/MST control) × 100
# Criteria: % T/C = 125 considered significant antitumor activity
# AWC: average weight change (treatedcontrol) in grams (on day 4)
# [3] = test system: gram-positive organisms such as Bacillus subtilis and Staphylococcus aureus as well as Streptococcus faecalis; test: Antibacterial activity, serial two-fold agar dilution method (statement in words); assay type: cell-based
# Procedure: as §1
smiles,measurement,setting,value
"CS[C@H]1SC[C@H]2C(=O)N(C)[C@@H](C(C)C)C(=O)OC[C@@H](NC(=O)c3cnc4ccccc4n3)C(=O)N[C@@H](C)C(=O)N(C)[C@@H]1C(=O)N(C)[C@@H](C(C)C)C(=O)OC[C@@H](NC(=O)c1cnc3ccccc3n1)C(=O)N[C@@H](C)C(=O)N2C [Echinomycin, reference compound]",MIC,[1],0.012 µg/mL
"CC(C)C1C(=O)OCC(NC(=O)c2nc3ccccc3cc2O)C(=O)N2CCCCC2C(=O)NCC(=O)N(C)CC(=O)N(C)C(C(C)C)C(=O)OCC(NC(=O)c2nc3ccccc3cc2O)C(=O)N2CCCCC2C(=O)NCC(=O)N(C)CC(=O)N1C (stereo not drawn) [Sandramycin] (I: {Quinaldoyl(3-OH)}-S[Pip]G[Sar][NMeV] / II: {Quinaldoyl(3-OH)}-S[Pip]G[Sar][NMeV]; ester I:1-II:C, I:C-II:1; configuration not given here)",optimum dose,"[2]; both schedules: single dose on day 1 and daily for 5 days, IP",about 0.2 mg/kg/injection
same,AWC (average weight change) Day 4,"[2]; d. 1, IP, 0.025 mg/kg/inj.",-0.2 gm
same,MST (median survival time),"[2]; d. 1, IP, 0.025 mg/kg/inj.",9.5 days
same,AWC (average weight change) Day 4,"[2]; d. 1, IP, 0.05 mg/kg/inj.",-0.6 gm
same,MST (median survival time),"[2]; d. 1, IP, 0.05 mg/kg/inj.",10.0 days
same,AWC (average weight change) Day 4,"[2]; d. 1, IP, 0.1 mg/kg/inj.",-0.9 gm
same,MST (median survival time),"[2]; d. 1, IP, 0.1 mg/kg/inj.",11.0 days
same,AWC (average weight change) Day 4,"[2]; d. 1, IP, 0.2 mg/kg/inj.",-1.4 gm
same,AWC (average weight change) Day 4,"[2]; d. 1, IP, 0.4 mg/kg/inj.",-0.7 gm
same,MST (median survival time),"[2]; d. 1, IP, 0.4 mg/kg/inj.",11.0 days
same,AWC (average weight change) Day 4,"[2]; d. 1, IP, 0.8 mg/kg/inj.",-1.6 gm
same,MST (median survival time),"[2]; d. 1, IP, 0.8 mg/kg/inj.",10.0 days
same,AWC (average weight change) Day 4,"[2]; d. 1, IP, 1.6 mg/kg/inj.",-1.3 gm
same,AWC (average weight change) Day 4,"[2]; d. 1, IP, 3.2 mg/kg/inj.",-2.8 gm
same,MST (median survival time),"[2]; d. 1, IP, 3.2 mg/kg/inj.",Toxic
same,AWC (average weight change) Day 4,"[2]; d. 1→5, IP, 0.0125 mg/kg/inj.",-0.9 gm
same,Survivors Day 5,"[2]; d. 1→5, IP, 0.0125 mg/kg/inj.",6/6
same,AWC (average weight change) Day 4,"[2]; d. 1→5, IP, 0.025 mg/kg/inj.",-1.4 gm
same,MST (median survival time),"[2]; d. 1→5, IP, 0.025 mg/kg/inj.",10.0 days
same,AWC (average weight change) Day 4,"[2]; d. 1→5, IP, 0.05 mg/kg/inj.",-1.8 gm
same,MST (median survival time),"[2]; d. 1→5, IP, 0.05 mg/kg/inj.",8.5 days
same,AWC (average weight change) Day 4,"[2]; d. 1→5, IP, 0.1 mg/kg/inj.",-0.8 gm
same,AWC (average weight change) Day 4,"[2]; d. 1→5, IP, 0.2 mg/kg/inj.",-1.7 gm
same,MST (median survival time),"[2]; d. 1→5, IP, 0.2 mg/kg/inj.",12.0 days
same,AWC (average weight change) Day 4,"[2]; d. 1→5, IP, 0.4 mg/kg/inj.",-1.3 gm
same,MST (median survival time),"[2]; d. 1→5, IP, 0.4 mg/kg/inj.",11.0 days
same,AWC (average weight change) Day 4,"[2]; d. 1→5, IP, 0.8 mg/kg/inj.",-1.4 gm
same,MST (median survival time),"[2]; d. 1→5, IP, 0.8 mg/kg/inj.",6.0 days
same,AWC (average weight change) Day 4,"[2]; d. 1→5, IP, 1.6 mg/kg/inj.",-1.7 gm
same,MST (median survival time),"[2]; d. 1→5, IP, 1.6 mg/kg/inj.",Toxic
same,antibacterial activity,[3],strongly inhibitory
same,MIC,[1],0.012 µg/mL
